No end group written: not given here.

Experimental findings from patent US10294272B2, “Peptides with antagonistic activities against natural CXCR4” (Pharis Biotec GmbH, priority 2013, dated 2019) are described below.

One series has as its system X4 HIV-1 strains. The procedure:
(§1) Antiviral screening was performed using the X4 HIV-1 NL4-3 molecular clone.
(§2) HIV-1, HIV-2 and SIV molecular clones differing in coreceptor tropism were generated by transient transfection of 293T cells with proviral DNA by the calcium phosphate method (CalPhos™ Mammalian Transfection Kit, Clon-tech). After overnight incubation, the transfection mixture was replaced by DMEM medium supplemented with 10% FCS, and virus stocks were harvested 48 hrs post-transfection. Subsequently, the culture supernatant was centrifuged for 5 min at 3000 rpm to remove cell debris. The resulting virus stock was quantified by p24 (HIV) or p27 (SIV) antigen ELISA. Virus stocks were either used immediately or stored in aliquots at −80° C.
(§3) TZM-bl reporter cells containing the LacZ reporter gene under the control of the HIV-1 promoter were seeded in 96-well F-bottom microtiter plates (Greiner Bio-One). On the following day, the cells were preincubated with various dilutions of the peptide of SEQ ID NO 16 or its derivatives for 1 hour and subsequently infected with HIV-1, HIV-2, and SIV. Infection rates were determined after 2 days using the one-step Tropix Gal-Screen Kit, as recommended by the manufacturer.

Another series has as its system X4 tropic HIV-1 NL4-3. To be noted: blocking X4 tropic HIV-1 NL4-3 infection. The protocol: as §1, §2, §3
Series [1] relates to wild-type (wt) HIV-1 NL4-3 in PBMCs. In words: PBMC infection assay. The class given is cell-based. Particulars: concentrations ≥4 μg/ml. The procedure: Peripheral blood mononuclear cells were isolated from Buffy coat derived from the DRK-Blutspendedienst Baden-Württemberg-Hessen using Ficoll density centrifugation. 1×10^6 PBMC per ml were stimulated with 1 μg/ml phytohemagglutinine (PHA, Oxoid, #3085280) and 10 ng/ml Interleukin 2 (IL-2, Strathmann, #9511192) for three days. Thereafter, cells were pelleted and resuspended in IL-2 containing medium. 2×10^5 PBMC were seeded in 96 well F-bottom microtiter plates, peptides were added and cells were infected with […] p24 antigen of X4 or R5 tropic viruses. Supernatants containing progeny virus were taken at every 2-3 days post infection. Virus production was measured by p24 antigen ELISA (NIH AIDS reagent program). The mean p24 antigen values (ng/ml) were derived from triplicate infections±standard deviation.

The test system of series [2] is TZM-bl cells or prestimulated PBMCs. The procedure: To assess cytotoxic effects TZM-bl cells or prestimulated PBMCs were incubated with increasing concentrations of peptides. Cell viability was determined using the CellTiter-Glo Luminescent Cell Viability Assay (PROMEGA, G7571) as recommended by the manufacturer. Values were derived from triplicate measurements. Vitality rates were calculated relative to ATP levels in PBS (no peptide) containing cells (100%). Data were recorded using a luminometer 10 minutes after adding reagent.

The test system of a further series is X4 HIV-2 strains. In words: TZM-bl infection assay, X4 HIV-2. Type of series: cell-based. To be noted: effects relatively modest. The protocol: as §2, §3
For a further series, the system named is SIV strains. In words: TZM-bl infection assay, SIV. The class given is cell-based. To be noted: effects relatively modest. The procedure: as §2, §3
The test system of another series is Jurkat T cells. In words: CXCL12-induced migration of Jurkat T cells. The class given is cell-based. The protocol:
Migration of Jurkat cells (ATCC) was analyzed using 6.5 mm diameter chambers with 5 μm pore filters (Transwell, 24-well cell culture, Coster, Boston, Mass.). 2×10^5 Jurkat cells were suspended in 200 μl Optimizer T-Cell Expansion SFM, and the cell suspensions were added to the upper chamber. Then, 10 nM CXCL12 (R&D System) and/or various concentrations of the peptide of SEQ ID NO 16 or its derivatives in 600 μl T-Cell Expansion SFM were added to the lower chamber. The cell culture chambers were incubated for 150 min in a cell culture incubator at 37° C. After incubation, chambers were removed, 100 μl of supernatants were taken and cells that migrated into the lower compartment were either counted directly using a hemocytometer or analyzed using the CellTiter-Glo Luminescent Cell Viability Assay as described above. All values represent mean numbers of migrated cells relative to CXCL12 only treated cells from a triplicate experiment±SD.

In another series the target is T1, CXCR4 (Mus musculus, UniProt P70658).
T1 construct: from tissue; host or cells: live mice (C57Bl/6J for mobilization)
Nature of the series: Progenitor cell mobilization in mice. The class given is in vivo. Particulars: single i.p. administration. The protocol:
C57B1/6J mice (Janvier, Le Genest St. Isle, F R) were housed in the conventional vivarium of the Goethe-University Medical Center, Frankfurt, with food and water ad libitum. Mice received i.p. injections of 200 μL water or normal saline containing 10 mg/mL the peptide of SEQ ID NO 16. Blood was drawn at the indicated times following injection from the check pouch after careful skin disinfection. After hypotonic lysis, leukocytes were incubated in duplicate in cytokine-replete commercially available semi-solid media (3434, Stem Cell Technologies, Vancouver, B C) under standard conditions. CFU—C were scored on day 7, as described (Bönig et al., 2006). CFU—C were normalized to the blood volume incubated. All animal studies were done with permission of the local IACUC, in agreement with AAALAC guidelines.

Series [3] is described as follows: Transplantation of mobilized cells. Type of series: in vivo. The protocol: […] animals were injected with the peptide of SEQ ID NO 16 (2 mg i.p in saline) or controls saline. Peripheral blood was individually harvested 1 hour post injection, counted, combined and competitively transplanted (660 μl blood equivalent) alongside 4×10^5 C57BL/6 CD45.1 BM cells into C57BL/6 Cd45.1 recipients.

Another series relates to Staphylococus aureus. Nature of the series: Antibacterial activity against Staphylococcus. Type of series: cell-based.
In the next series the test system is other GPCRs. In words: GPCR antagonist screen. Particulars: selectivity for CXCR4. An excerpt: GPCR Antagonist Screen of the Peptide of SEQ ID NO 16

T1 sequence (P70658 whole entry): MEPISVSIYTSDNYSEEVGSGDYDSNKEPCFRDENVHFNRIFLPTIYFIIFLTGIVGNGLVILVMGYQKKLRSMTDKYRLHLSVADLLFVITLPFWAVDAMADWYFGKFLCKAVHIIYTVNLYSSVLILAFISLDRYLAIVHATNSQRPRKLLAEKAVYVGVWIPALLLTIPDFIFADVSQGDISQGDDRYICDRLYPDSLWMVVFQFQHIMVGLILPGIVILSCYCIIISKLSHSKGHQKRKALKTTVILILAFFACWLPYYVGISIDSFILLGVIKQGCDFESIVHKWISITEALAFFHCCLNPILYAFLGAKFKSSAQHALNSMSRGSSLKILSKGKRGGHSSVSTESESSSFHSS

As for “LVRYTKKVPQVSTPTL [Derivative 408-423, LVRYTKKVPQVSTPTL]”, the “mean 50% inhibitory concentration (IC50), infection by X4 HIV-1 strains” value in the series with X4 HIV-1 strains (mean over X4 HIV-1 strains, chemically synthesized peptide) stood at 15.8 µg/mL. In addition, the “HIV infection after pretreatment of viral target cells (not of virions)” value in the series with X4 HIV-1 strains (pretreatment of target cells) is recorded as “effective reduction”. Besides, the IC50 with X4 HIV-1 strains (read-out: mean 50% inhibitory concentration (IC50), infection by X4 HIV-1 strains, corresponding to 15.8 μg/ml) was found to be 8.6 µM; in the series with X4 tropic HIV-1 NL4-3, 8.63 µM. Also, the “Replication of wild-type HIV-1 NL4-3 in PBMCs” value in [1] is reported as “markedly suppressed”. The cytotoxic effects result in series [2] was “did not display cytotoxic effects”. Besides, the “infection by X4 HIV-2 strains” value with X4 HIV-2 strains is “inhibits infection”. Further, the “infection by SIV strains” value with SIV strains was “inhibits infection”. In addition, in the series with Jurkat T cells, the “CXCL12-induced migration of Jurkat T cells” value is listed as “suppressed”. Further, at CXCR4, the “mobilization of progenitor cells and neutrophils into the periphery” value is “significant mobilization”. Also, the “engraftment rates after transplantation of cells from treated mice” value in [3] is recorded as “increased engraftment rates”. Also, in the series with Staphylococus aureus, the “effects against Staphylococus aureus” value is “only modest effects”. In addition, the “activity of a large number of other GPCRs” value in the series with other GPCRs is “not affected”.
